Laboratory results reported in US20230000924A1, “COMPOSITIONS AND METHODS FOR GENERATION OF SINOATRIAL NODE-LIKE CELLS AND THEIR USE IN DRUG DISCOVERY” (Cornell University, priority 2019, published 2023).
“Also recorded” adds a separate entry of the source.

Assays:
[1] = system: SHOX2:GFP+ hPSC-SAN cells; assay: DOXO toxicity, cleaved caspase3+ cells, in hPSC-SAN cells; assay type: cell-based, human; settings: 0.16 μM DOXO, 3 days, day 35 pacemaker-like cells
Method: (§1) FIG. 4. Pharmacogenetics and drug discovery for doxorubicin-mediated acute cell toxicity using hPSC-SAN cells. a, Relative cell toxicity of hESC-SAN and hESC-V cells upon DOXO treatment based on immunostaining of antibody against cleaved-caspase3. The fold change was calculated by dividing the percentage of cleaved caspase-3^+ cells in GFP^+ or mCherry^+ cells in the DOXO-treated condition by the percentage of cleaved caspase-3^+ cells in GFP^+ or mCherry^+ cells in the DMSO-treated condition (n=10); b, Sensitivity of day 30 hiPSC-SAN cells derived from 48 hiPSC lines upon DOXO treatment. 48 hiPSC lines were differentiated toward SAN-like cells and split into two equal samples, which were treated with 0.16 μM doxorubicin or DMSO for 3 days. The fold change was calculated by dividing the percentage of cleaved caspase-3^+ cells in ISL1^+ cells in the DOXO-treated condition by the percentage of cleaved caspase-3^+ cells in ISL1^+ cells in the DMSO-treated condition. […] Data are mean±s.e.m. Data were normalized to non-DOXO treated cells.

[2] = system: hPSC-SAN cells differentiated from 48 distinct iPSC lines; assay: DOXO sensitivity of hPSC-SAN cells differentiated from 48 iPSC lines (cleaved caspase-3 / ISL1 staining); assay type: cell-based, human; settings: 0.16 μM DOXO, 3 days
Method: FIG. 4. […] Data are mean±s.e.m. Data were normalized to non-DOXO treated cells.
To identify genetic variation that associates with the sensitivity of pacemaker cells to DOXO-induced toxicity, we performed an unbiased screen using a library of hPSC-SAN cells differentiated from 48 distinct iPSC lines. Cells differentiated for 35 days were treated with 0.16 μM DOXO for 3 days. Due to the lack of a robust antibody to SHOX2, an antibody recognizing ISL1 that is co-expressed with SHOX2:GFP (FIG. 2a), was used to identify hPSC-SAN cells that co-stain for cleaved caspase-3, as an assay for cytotoxicity. […] We identified 14 “high-sensitive” iPSC lines that generate hPSC-SAN cells displaying DOXO-induced apoptosis rates greater than 4-fold compared to DMSO-treated cells (FIG. 4b). To test if this platform can be applied toward in vitro pharmacogenomics, the iPSC clones were sequenced at several genomic regions harboring known SNPs associated with increased DOXO-mediated cardiotoxicity, including rs1056892, rs2229774 and rs885004 (in or near the genes CBR3, RARG and SLC28A3, respectively). 10 out of the 14 high-sensitive iPSC lines harbored one of these 3 SNPs (FIG. 4c). All 4 of the lines carrying the risk allele of rs1056892 generated hPSC-SAN cells with more than 4-fold increased toxicity. This is consistent with findings that CBR3 is expressed in heart tissue and functions for drug metabolism.

[3] = system: SHOX2:GFP-; MHC6:mCherry+ cardiomyocytes; settings: 0.16 μM DOXO, 3 days, day 35 cardiomyocytes
Method: as §1

A549 xenograft tumors = assay: A549 xenograft mouse model; assay type: in vivo; settings: IP once a week for two weeks; for tumor burden / growth (tumor wt. and volume), single agent: 4 mg/kg
Method: FIG. 18. […] We tested the effects of Doxorubicin and Physcion using an A549 xenograft mouse model. Mice with A549 xenograft tumors were treated with vehicle, Doxorubicin, Physcion, or Doxorubicin plus Physcion. Doxorubicin and Physcion treatment was administered by IP injection once a week for two weeks, at a concentration of 4 mg/kg wt for both compounds.

murine SAN = assay: Ex vivo murine atrial explants (SAN cell death, contraction rhythmicity)
Method: FIG. 15. […] Quantification of contraction rhythmicity of explants was calculated by the COV as described above.
FIG. 16. […] Quantification of contraction rhythmicity of explants was calculated by the COV as described above.
Thus, we used an ex vivo model to document the direct effect of Doxorubicin and Physcion on the murine SAN. Whole, intact atrial explants were incubated with 1 μM doxorubicin or 1 uM doxorubicin+20 μM Physcion for 3 hrs.

[4] = cited from earlier work
HCN4+ SAN cells = settings: mouse, in vivo
Method: FIG. 12. […] Immunofluorescence of intact atria isolated from Doxorubicin (two IP injections of 10 mg/kg at 3 day intervals) treated mice euthanized 9 days after initial treatment. Cell death (caspase 3, green) was analyzed in either myocardial (cTroponin, blue) or SAN tissue (HCN4, red).
FIG. 13. […] Contractions of intact atria isolated from vehicle (left panels) or Doxorubicin (right panels) treated mice (30 sec recordings;) x axis=[…]. […] Quantification of contraction rhythmicity of hearts was calculated by the coefficient of variance (COV)=std dev of peak to peak contraction time/average peak to peak contraction time.
C57BL/6 mice were treated with 20 mg/kg Doxorubicin by intraperitoneal injection.

hPSC-SAN cells = assay: Chemical screen and validation for rescue of DOXO toxicity in hPSC-SAN cells; assay type: cell-based, human
Method: The fold change was calculated by dividing the percentage of cleaved caspase-3^+ cells in GFP^+ or mCherry^+ cells in the DOXO-treated condition by the percentage of cleaved caspase-3^+ cells in GFP^+ or mCherry^+ cells in the DMSO-treated condition (n=10); b, Sensitivity of day 30 hiPSC-SAN cells derived from 48 hiPSC lines upon DOXO treatment. […] The fold change was calculated by dividing the percentage of cleaved caspase-3^+ cells in ISL1^+ cells in the DOXO-treated condition by the percentage of cleaved caspase-3^+ cells in ISL1^+ cells in the DMSO-treated condition. […] Data were normalized to non-DOXO treated cells (n=4). h, Quantification of cell toxicity on hPSC-SAN cells derived from sensitive iPSC lines after co-treatment with DOXO and either 10 μM physcion (n=3) or DMSO (n=4). *p<0.05 **p<0.01. t-test. Data are mean±s.e.m. Data were normalized to non-DOXO treated cells.
Day 35 cells were treated for 3 days with DOXO and small molecules.
1472 compounds were tested consisting of FDA-approved drugs and natural products. Hit targets were selected based on a reduced percent ratio of GFP^+ cleaved caspase-3^+/GFP^+ cells (FIG. 11a). The compounds that decreased the cell death rate by more than two-fold of the standard deviation below the average of DMSO-treated samples were selected as primary hits. […]

[5] = system: A549 human epithelial lung cancer cells; assay: Chemotherapeutic effect on A549 cells in culture; assay type: cell-based; settings: 72 hrs
Method: FIG. 17. […] We tested the effects of Physcion and Physcion+Doxorubicin on A549 human epithelial lung cancer cells grown in culture. 5×10^4 cells were treated with varying doses of Doxorubicin and Physcion for 72 hrs.

SHOX2:GFP+ cells = assay: Epigenetic library screen for SHOX2:GFP+ cells; assay type: cell-based, human; settings: condition 8, compound added at day 7, after 14 days of differentiation
From the text: To quantify and purify SAN-like cells using this directed differentiation protocol, a dual knock-in SHOX2:GFP; MYH6:mCherry reporter line was created using CRISPR/Cas-based gene-targeting techniques (FIG. 6b). Immunofluorescence and FACS analyses confirmed the success of the protocol for generating putative hPSC-SAN cells, as condition 8 maximizes generation of SHOX2:GFP^+ cells (FIG. 1c, d). The sorted GFP^+ cells were enriched approximately 4000-fold for SHOX2 transcript levels compared to GFP^− cells (FIG. 1e), and most of the GFP^+ cells co-express ISL1 and HCN4, proteins closely associated with the development and function of SAN cells (FIG. 6b). To further enhance production of GFP^+ cells, we considered that SAN development may also be controlled epigenetically and performed an unbiased screen using a library of known epigenetic modulatory compounds. Cells were differentiated using condition 8 with compounds added at day 7 (FIG. 1f and FIG. 6c).
Pacemaker and cardiomyocyte induction. Differentiation was initiated 72 hours after plating when the culture was approximately 80% confluent. Step 1: Cells were differentiated with 1.5 μM CHIR99021 (CHIR, Stem-RD, Ch), 20 ng/mL BMP4 (B) and 20 ng/mL Activin A (AA) in RPMI (Cellgro) supplemented with B27 minus insulin, 2 mM GlutaMAX, 1× NEAA and 1× Pen/Strep for 3 days (RB27-INS). […]

hESC-SAN cells = assay: Ca2+-flux assay (calcium imaging) in hESC-SAN cells; assay type: cell-based, human; settings: 1 μM ivabradine, recordings after 5 min vs baseline
Method: (§2) FIG. 2. Functional characterization of hPSC-SAN cells. a, Immunofluorescent co-staining of GFP with pacemaker-associated transcription factors (ISL1, TBX5 and NKX2.5) and ion channels (HCN4, Cav3.1, Cav1.3 and Cx30.2) in cells differentiated to day 30 or day 60. Scale bar=200 μM. b, qRT-PCR analysis using samples from GFP^+ (G+) or mCherry^+ (Ch+) cells at day 25 or day 45. n=3 independent experiments. Fold-change was normalized to undifferentiated hESC. c, Schematic for co-culture of hESC-derived ANs expressing eYFP-channelrhodopsin-2 with either hPSC-SAN or hESC-V; d, Immunofluorescence (left) and electron microscopy images (right) of hESC-AN and hPSC-SAN after 12 weeks of co-culture. Scale bar: 100 μM and 1 μM, respectively; e, Basal release of catecholamine was analyzed using an ELISA kit for AN alone, AN+hES-SAN and AN+hES-V conditions after 8 weeks of co-culture. n=3 independent experiments. f, Representative image of averaged action potentials recorded from an individual hPSC-SAN (left) and distribution (right) of dV/dtmax, APD30 and APD90 recorded used day 30 cells; g, Quantitative analysis of day 30 hPSC-SAN function in response to 1 μM ivabradine. Fold change in calcium transient amplitude (deltaF/F0) of hPSC-SAN or hESC-V cells before and after treatment with ivabradine (n=22 for hESC-SAN and =17 for hESC-V). *p<0.05 **p<0.01. t-test. Data are mean±s.e.m. […]

[6] = system: hESC-derived ventricular myocytes (hESC-V); assay: Ca2+-flux assay (calcium imaging) in hESC-derived ventricular myocytes; assay type: cell-based, human; settings: cardiomyocyte (hESC-V) cultures, 1 μM ivabradine, recordings after 5 min vs baseline
Method: as §2

[7] = 1 uM doxorubicin+20 μM Physcion, 3 hrs

Structure (SMILES): COc1cccc2c1C(=O)c1c(O)c3c(c(O)c1C2=O)C[C@@](O)(C(=O)CO)C[C@@H]3O[C@H]1C[C@H](N)[C@H](O)[C@H](C)O1 [Doxorubicin]
- cytotoxicity (percentage of cleaved caspase3+ cells) [1]: significant cytotoxicity
- DOXO-induced apoptosis rate compared to DMSO-treated cells ([2]; 14 high-sensitive iPSC lines): greater than 4 fold
- increased toxicity ([2]; all 4 lines carrying the risk allele of rs1056892): greater than 4 fold
- percentage of cleaved caspase3+ ISL1 cells following DOXO ([2]; hPSC-SAN cells from all 48 iPSC lines): at least some increase
- cell death (percentage of cleaved caspase3+ cells) [3]: no significant increase in cell death
- tumor burden / growth (tumor wt. and volume), single agent (A549 xenograft tumors): reduction in tumor wt. and volume
- SAN cell death in atrial explants (murine SAN; 1 μM doxorubicin, 3 hrs): localized SAN cell death
- contractility of atrial explants (murine SAN; 1 μM doxorubicin, 3 hrs): irregular contractility
- contraction rhythmicity of explants (COV) (murine SAN; 1.5 μM Doxorubicin): irregular contractions marked by significantly higher variance in the time between contractions
- sub-clinical systolic dysfunction ([4]; of treated patients): ~40%
- DOXO-induced cardiomyopathy ([4]; treated patients): 10-20%
- variance in the time between contractions (coefficient of variance, COV) (HCN4+ SAN cells): significantly higher variance in the time between contractions

Structure (SMILES): COc1cc(O)c2c(c1)C(=O)c1cc(C)cc(O)c1C2=O [Physcion, physcion]
- effective dose to rescue DOXO-induced cell toxicity (hPSC-SAN cells; hPSC-SAN cells, 0.16 μM DOXO, 3 days): 10 to 20 µM
- toxicity levels in hPSC-SAN cells from sensitive iPSC lines (hPSC-SAN cells; three most sensitive iPSC lines, DOXO with 10 μM Physcion vs without): significant decrease in toxicity levels
- tumor burden / growth (tumor wt. and volume), single agent (A549 xenograft tumors): did not affect tumor growth
- effect on chemotherapeutic effects of Doxorubicin in vivo (A549 xenograft tumors; Physcion plus Doxorubicin, 4 mg/kg each): did not block; also recorded: did not inhibit the chemotherapeutic effects of Doxorubicin
- doxorubicin-induced SAN cell death of explants (murine SAN; [7]): blocks
- doxorubicin-induced arrhythmic contractility of explants (murine SAN; [7]): blocks
- contraction rhythmicity of explants (COV) (murine SAN; 1.5 μM Doxorubicin+20 μM Physcion): regained rhythmic contractions with minimal variance in periods between contractions
- chemotherapeutic effects of Physcion alone [5]: does not exhibit chemotherapeutic effects
- effect on chemotoxic effects of Doxorubicin ([5]; Physcion as high as 50 μM, varying doses of Doxorubicin): did not block; also recorded: did not inhibit

Structure (SMILES): Nc1cc(F)ccc1NC(=O)c1ccc(CNC(=O)/C=C/c2cccnc2)cc1 [chidamide]
- percentage of GFP+ cells (SHOX2:GFP+ cells): ~50%

Structure (SMILES): COc1cc2c(cc1OC)CC(=O)N(CCCN(C)C[C@H]1Cc3cc(OC)c(OC)cc31)CC2 [ivabradine, Ivabradine]
- contractions and calcium activity (hESC-SAN cells): significant reduction
- contractions and calcium activity [6]: no significant difference
